Experimental data as given in paper PMC6150379, “Novel Triazole Hybrids of Betulin: Synthesis and Biological Activity Profile” (Molecules : A Journal of Synthetic Chemistry and Natural …, 2017).
≈ marks a conversion by molar mass, not a printed value.

What was measured:
[1] = system: SKOV-3 human ovarian cancer cell line; experiment: Inhibition of tumor cell proliferation (MTT); conditions: SK-OV-3, 96 h, read-out: Max. Inhibition (% of Control)
Description: Antiproliferative activities of the compounds were measured by the MTT assay using A549 cells and a human ovarian cancer cell line SKOV-3 (adenocarcinoma ATCC® HTB77™). A total of 2 × 10^3 cells in DMEM medium supplemented with 5% FBS were placed in each well of a 96-well flat-bottom plate. After 24 h of incubation at 37 °C in 5% CO2, the growth medium was replaced by media containing different concentrations of the derivatives. Control cultures received cisplatin 0.1–10 μg/mL, and blank wells contained 100 μL of growth medium with no cells. After 96 h of incubation, cell proliferation was determined by the colorimetric MTT assay (570 nm) reading for each concentration compared with the control. At least three replicates for each sample were used to determine the cell proliferation.

[2] = system: MCF-7 (human adenocarcinoma); experiment: Cytotoxic activity, WST-1 assay; format: cell-based; conditions: MCF-7, 72 h, Neg = negative in the concentration used; for IC50: Homo sapiens, MCF7
[3] = system: cytopathogenic bovine orphan virus (ECBO) strain LCR-4; experiment: Time of addition assay (post-adsorption), CPE/MTT in A549 cells; format: cell-based, cytopathogenic bovine orphan virus (BEV-1); conditions: for EC50: A549; for SI: selectivity index, ratio of CC50 to EC50, ECBO in A549 cells
[4] = system: C-32 (human amelanotic melanoma); experiment: Cytotoxic activity, WST-1 assay; format: cell-based; conditions: C-32, 72 h, Neg = negative in the concentration used; for IC50: Homo sapiens
[5] = system: Colo-829 (human malignant melanoma); experiment: Cytotoxic activity, WST-1 assay; format: cell-based; conditions: Colo-829, 72 h, Neg = negative in the concentration used; for IC50: Homo sapiens
[6] = system: T47D (human ductal carcinoma); experiment: Cytotoxic activity, WST-1 assay; format: cell-based; conditions: for IC50 ± SD / IC50: 72 h, Neg = negative in the concentration used; for IC50: Homo sapiens
in vitro = conditions: human
Description: The cytotoxic effect of compounds on A549 cells was determined by the MTT method, as previously described [36]. The MTT assay is the enzyme-based method, which use the 3-(4,5-dimethylthiazol-2-yl)-2,5-diphenyltetrazolium bromide as a reductive coloring agent. Briefly, subconfluent monolayers of A549 cells (2 × 10^4 cell/well in Dulbecco’s Minimal Essential Medium (DMEM) supplemented with 5% fetal bovine serum (FBS), antibiotics (100 U/mL penicillin and 100 μg/mL streptomycin), and 2 mM L-glutamine (all from Sigma Aldrich, St. Louis, MO, USA) were incubated in 96-multi-well plates in the presence of dilutions of the compounds ranging from 100 μg/mL to 0.5 μg/mL, in triplicate for 48 h at 37 °C in a humidified atmosphere with 5% CO2. After 48 h, 20 μL of MTT solution (Promega, Madison, WI, USA) was added to each well, and the microplates were kept at 37 °C/5% CO2 for 3 h. Then, the solubilization/stop solution containing SDS-HCl (100 μL/well) was added, and the absorbance values of the wells were measured at 570 nm using a 96-well plate reader (Multiskan RC spectrophotometer, Thermo Labsystems, Waltham, MA, USA). Cell viability (%) was calculated for each concentration as Abs treated/Abs control × 100, where Abs treated and Abs control are the absorbance readings for the wells with and without the tested compounds, respectively. The 50% cytotoxic concentration (CC50) was defined as the concentration that reduced cell viability by 50% with respect to controls without drugs. The CC50 value was calculated from the corresponding dose–response curves.

SNB-19 (glioblastoma) = experiment: Cytotoxic activity, WST-1 assay; format: cell-based, human; conditions: SNB-19, 72 h, Neg = negative in the concentration used; for IC50: Homo sapiens

Structure (SMILES)	inhibition at 10 µg/mL [1] [%]	IC50 ± SD [2]	EC50 [3] [µg/mL]	SI [3]	IC50 ± SD [4]	IC50 [5] [µM]	IC50 ± SD [6]	melting point [°C]	CC50 at 48 h (in vitro) [µg/mL]	IC50 ± SD (SNB-19 (glioblastoma))	IC50 [2] [µM]	IC50 [4] [µM]	IC50 [6] [µM]	IC50 (SNB-19 (glioblastoma)) [µM]	IC50 ± SD [5]	potency relative to cisplatin ([6]; ratio of IC50 values) [fold]
C=C(C)C1CC[C@]2(COC(=O)c3cn(CC(N)C(=O)O)nn3)CC[C@]3(C)C(CCC4[C@@]5(C)CC[C@H](O)C(C)(C)C5CC[C@]43C)C12 (some centres unmarked) [Compound 5j, 2-Amino-3-[4-(28-O-betulinylcarbonyl)-1H-1,2,3-triazol-1-yl]propanoic acid]	40	Neg	5 (≈ 8 µM)	20.0	Neg	3.3 ± 1.1	total decay of cytotoxic activity and Neg	265 to 269	100 (≈ 160 µM)	Neg	–	–	–	–	–	–
C=C(C)C1CC[C@]2(COC(=O)c3cn(C(C(=O)O)C(C)C)nn3)CC[C@]3(C)C(CCC4[C@@]5(C)CC[C@H](O)C(C)(C)C5CC[C@]43C)C12 (some centres unmarked) [Compound 5k]	–	–	–	–	–	8.7 ± 0.5	–	293 to 297	–	–	37.2 ± 0.7	46.9 ± 2.5	7.2 ± 0.2	6.3 ± 0.9	–	–
C=C(C)C1CC[C@]2(COC(=O)c3cn(Cc4ccccc4)nn3)CC[C@]3(C)C(CCC4[C@@]5(C)CC[C@H](OC(=O)c6cn(Cc7ccccc7)nn6)C(C)(C)C5CC[C@]43C)C12 (some centres unmarked) [Compound 6a, 3,28-O,O’-Di[(1-benzyl-1H-1,2,3-triazol-4-yl)carbonyl]betulin]	–	Neg	–	–	Neg	80.7 ± 1.8	Neg	117 to 120	–	–	–	–	–	24.4 ± 1.3	–	–
C=C(C)C1CC[C@]2(COC(=O)c3cn(Cc4ccc(F)cc4)nn3)CC[C@]3(C)C(CCC4[C@@]5(C)CC[C@H](OC(=O)c6cn(Cc7ccc(F)cc7)nn6)C(C)(C)C5CC[C@]43C)C12 (some centres unmarked) [Compound 6b, 3,28-O,O’-Di[1-(4-fluorobenzyl-1H-1,2,3-triazol-4-yl)carbonyl]betulin]	–	–	–	–	Neg	–	–	155 to 158	–	–	0.09 ± 0.01	–	0.05 ± 0.01	0.08 ± 0.01	Neg	500
C=C(C)C1CC[C@]2(COC(=O)c3cn(Cc4ccc(C#N)cc4)nn3)CC[C@]3(C)C(CCC4[C@@]5(C)CC[C@H](OC(=O)c6cn(Cc7ccc(C#N)cc7)nn6)C(C)(C)C5CC[C@]43C)C12 (some centres unmarked) [Compound 6c, 3,28-O,O’-Di[1-(4-cyanobenzyl-1H-1,2,3-triazol-4-yl)carbonyl]betulin]	–	–	–	–	Neg	–	–	–	–	–	60.7 ± 0.6	–	1.1 ± 0.01	0.06 ± 0.01	Neg	–
C=C(C)C1CC[C@]2(COC(=O)c3cn(CSc4ccccc4)nn3)CC[C@]3(C)C(CCC4[C@@]5(C)CC[C@H](OC(=O)c6cn(CSc7ccccc7)nn6)C(C)(C)C5CC[C@]43C)C12 (some centres unmarked) [Compound 6d, 3,28-O,O’-Di[(1-phenylthiomethyl-1H-1,2,3-triazol-4-yl)carbonyl]betulin]	–	–	–	–	–	103 ± 4.7	–	127 to 131	–	–	0.9 ± 0.08	100 ± 2.8	0.9 ± 0.05	0.5 ± 0.02	–	–
C=C(C)C1CCC2(COC(=O)c3cn(C4CC(n5cc(C)c(=O)[nH]c5=O)OC4CO)nn3)CCC3(C)C(CCC4C5(C)CCC(OC(=O)c6cn(C7CC(n8cc(C)c(=O)[nH]c8=O)OC7CO)nn6)C(C)(C)C5CCC43C)C12 (centres unmarked) [Compound 6e, 3,28-O,O’-Di[1-(3′-deoxythymidine-5′-yl-1H-1,2,3-triazol-4-yl)carbonyl]betulin]	–	total decay of cytotoxic effect and Neg	–	–	total decay of cytotoxic effect and Neg	–	total decay of cytotoxic effect and Neg	224 to 227	–	total decay of cytotoxic effect and Neg	–	–	–	–	total decay of cytotoxic effect and Neg	–
C=C(C)C1CCC2(COC(=O)c3cn(C4OC(CO)C(O)C(O)C4O)nn3)CCC3(C)C(CCC4C5(C)CCC(OC(=O)c6cn(C7OC(CO)C(O)C(O)C7O)nn6)C(C)(C)C5CCC43C)C12 [Compound 6f, 3,28-O,O’-Di[1-(1-deoxy-β-D-glucopyranosyl-1H-1,2,3-triazol-4-yl)carbonyl]betulin]	–	total decay of cytotoxic effect and Neg	5 (≈ 5.22 µM)	20.0	total decay of cytotoxic effect and Neg	–	total decay of cytotoxic effect and Neg	–	100 (≈ 104 µM)	total decay of cytotoxic effect and Neg	–	–	–	–	total decay of cytotoxic effect and Neg	–
C=C(C)C1CC[C@]2(COC(=O)c3cn(CC(=O)OCC)nn3)CC[C@]3(C)C(CCC4[C@@]5(C)CC[C@H](OC(=O)c6cn(CC(=O)OCC)nn6)C(C)(C)C5CC[C@]43C)C12 (some centres unmarked) [Compound 6g, 3,28-O,O’-Di-[(1-ethylacetyl-1H-1,2,3-triazol-4-yl)carbonyl]betulin]	–	Neg	–	–	Neg	97.6 ± 3.3	Neg	–	–	Neg	–	–	–	–	–	–
